Numbering of substitutions follows the chain as printed.
What was measured:
Assay in all cases: biochemical
[1] = target: T1, Amaranthus mutant PPO (AMARE) (Amaranthus tuberculatus, UniProt Q0NZW9, F420I/R128A)
T1 sequence (Q0NZW9 1-534 R128A/F420I): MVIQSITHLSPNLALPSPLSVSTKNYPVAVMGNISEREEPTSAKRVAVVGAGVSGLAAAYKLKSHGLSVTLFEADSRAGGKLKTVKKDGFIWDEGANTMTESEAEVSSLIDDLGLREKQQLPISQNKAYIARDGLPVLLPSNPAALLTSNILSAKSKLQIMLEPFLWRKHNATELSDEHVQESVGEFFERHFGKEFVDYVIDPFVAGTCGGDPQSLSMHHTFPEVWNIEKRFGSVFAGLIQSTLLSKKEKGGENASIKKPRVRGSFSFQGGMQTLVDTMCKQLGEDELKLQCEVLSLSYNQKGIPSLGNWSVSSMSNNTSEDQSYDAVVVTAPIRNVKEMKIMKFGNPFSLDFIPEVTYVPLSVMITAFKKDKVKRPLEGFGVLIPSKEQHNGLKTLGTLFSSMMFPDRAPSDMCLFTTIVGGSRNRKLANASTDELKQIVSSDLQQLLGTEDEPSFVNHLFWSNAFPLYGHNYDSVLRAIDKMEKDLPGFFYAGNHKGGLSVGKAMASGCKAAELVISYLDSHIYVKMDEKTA

[2] = target: T2, Amaranthus mutant PPO (AMARE) (Amaranthus tuberculatus, UniProt Q0NZW9, F420L/R128A)
T2 sequence (Q0NZW9 1-534 R128A/F420L): T1 sequence (Q0NZW9 1-534 R128A/F420I) with I420L

[3] = target: T3, Amaranthus mutant PPO (AMARE) (Amaranthus tuberculatus, UniProt Q0NZW9, F420L/R128I)
T3 sequence (Q0NZW9 1-534 R128I/F420L): T1 sequence (Q0NZW9 1-534 R128A/F420I) with A128I, I420L

[4] = target: T4, Amaranthus mutant PPO (AMARE) (Amaranthus tuberculatus, UniProt Q0NZW9, F420V)
T4 sequence (Q0NZW9 1-534 F420V): T1 sequence (Q0NZW9 1-534 R128A/F420I) with A128R, I420V

[5] = target: T5, Amaranthus mutant PPO (AMARE) (Amaranthus tuberculatus, UniProt Q0NZW9, F420V/R128L)
T5 sequence (Q0NZW9 1-534 R128L/F420V): T1 sequence (Q0NZW9 1-534 R128A/F420I) with A128L, I420V

Row | Structure (SMILES) | IC50 [1] [nM] | IC50 [2] [nM] | IC50 [3] [nM] | IC50 [4] [nM] | IC50 [5] [nM]
1 | C#CCN1C(=O)C(F)(F)Oc2cc(F)c(-n3c(=O)n(C)c(=S)n(C)c3=O)cc21 [BAS 850H] | 24.6 | 16.2 | 466 | 1.61 | 1510
2 | CC(C)N(C)S(=O)(=O)NC(=O)c1cc(-n2c(=O)cc(C(F)(F)F)n(C)c2=O)c(F)cc1Cl [saflufenacil] | > 10000 | > 10000 | > 10000 | 1590 | > 10000

From US10392630B2, “Plants having increased tolerance to herbicides” (BASF AGRO B.V., priority 2013, dated 2019)
